Data taken from US9079861B2, “Cyclic urea inhibitors of 11β-hydroxysteroid dehydrogenase 1” (Vitae Pharmaceuticals, Inc., priority 2007, dated 2015).
Where two headings read alike, the source gives them in different places.

Target: T1, human 11β-HSD1 (Homo sapiens, UniProt P28845)
T1 construct: expressed in transfected cells; host or cells: CHO cells (microsomes)
Test: Biological Test Example 1: inhibition of microsomal preparation of 11β-HSD1 (SPA)
Format: biochemical
Settings: for IC50: microsomes from CHO cells overexpressing human 11β-HSD1; for inhibition at 0.1 µM: read-out: Average % inhibition at 100 nM; for Average % inhibition at 100 nM: 0.1 µM
Experimental: The inhibition of microsomal preparation of 11β-HSD1 by compounds of the invention was measured essentially as previously described (K. Solly, S. S. Mundt, H. J. Zokian, G. J. Ding, A. Hermanowski-Vosatka, B. Strulovici, and W. Zheng, High-Throughput Screening of 11-Beta-Hydroxysteroid Dehydrogenase Type 1 in Scintillation Proximity Assay Format. Assay Drug Dev Technol 3 (2005) 377-384). All reactions were carried out at room temperature in 96 well clear flexible PET Microbeta plates (PerkinElmer). The assay begins by dispensing 49 μl of substrate solution (50 mM HEPES, pH 7.4, 100 mM KCl, 5 mM NaCl, 2 mM MgCl2, 2 mM NADPH and 160 nM [^3H]cortisone (1 Ci/mmol)) and mixing in 1 μL of the test compounds in DMSO previously diluted in half-log increments (8 points) starting at 0.1 mM. After a 10 minute pre-incubation, 50 μL of enzyme solution containing microsomes isolated from CHO cells overexpressing human 11β-HSD1 (10-20 μg/ml of total protein) was added, and the plates were incubated for 90 minutes at room temperature. The reaction was stopped by adding 50 μl of the SPA beads suspension containing 10 μM 18β-glycyrrhetinic acid, 5 mg/ml protein A coated YSi SPA beads (GE Healthcare) and 3.3 μg/ml of anti-cortisol antibody (East Coast Biologics) in Superblock buffer (Bio-Rad). The plates were shaken for 120 minutes at room temperature, and the SPA signal corresponding to [^3H]cortisol was measured on a Microbeta plate reader.

T1 sequence (P28845 whole entry): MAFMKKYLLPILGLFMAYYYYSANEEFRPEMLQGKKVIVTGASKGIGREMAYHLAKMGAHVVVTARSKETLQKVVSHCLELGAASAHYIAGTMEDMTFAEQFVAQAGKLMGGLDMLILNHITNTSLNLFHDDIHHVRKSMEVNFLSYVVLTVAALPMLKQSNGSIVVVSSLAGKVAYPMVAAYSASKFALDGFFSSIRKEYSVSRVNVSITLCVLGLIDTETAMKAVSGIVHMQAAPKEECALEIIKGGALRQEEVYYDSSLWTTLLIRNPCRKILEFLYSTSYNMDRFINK

Compound	IC50 (read-out: IC50 Range) [µM]	inhibition at 0.1 µM (at 100 nM) [%]	also measured
C=CC[C@@]1(c2ccc(F)cc2)CCN([C@@H](C)c2ccc(Br)cc2)C(=O)N1 (single isomer, unassigned) [Example 2 Isomer 2]	–	–	IC50 (IC50 Range): < 0.1 µM; inhibition at 0.1 µM: 69.5%
C=CC[C@]1(c2ccc(F)cc2)CCN([C@@H](C)c2ccc(Br)cc2)C(=O)N1C (single isomer, unassigned) [Example 3 Isomer 1]	< 0.1	–	inhibition at 0.1 µM: 51.2%
C=CC[C@@]1(c2ccc(F)cc2)CCN([C@@H](C)c2ccc(Br)cc2)C(=O)N1C (single isomer, unassigned) [Example 3 Isomer 2]	< 0.1	–	inhibition at 0.1 µM: 60.5%
C[C@@H](c1ccc(-c2ccc(F)cc2F)cc1)N1CC[C@](CCO)(c2ccc(F)cc2)NC1=O (single isomer, unassigned) [Example 6 Isomer 1]	< 0.1	97.2	–
C[C@@H](c1ccc(-c2ccc(F)cc2F)cc1)N1CC[C@@](CCO)(c2ccc(F)cc2)NC1=O (single isomer, unassigned) [Example 6 Isomer 2]	< 0.1	47.7	–
C[C@@H](c1ccc(-c2ccc(F)cc2F)cc1)N1CC[C@](CCCO)(c2ccc(F)cc2)NC1=O (single isomer, unassigned) [Example 7 Isomer 1]	< 0.1	94.8	–
C[C@@H](c1ccc(-c2ccc(F)cc2F)cc1)N1CC[C@@](CCCO)(c2ccc(F)cc2)NC1=O (single isomer, unassigned) [Example 7 Isomer 2]	< 0.1	71	–
C[C@@H](c1ccc(-c2ccc(F)cc2F)cc1)N1CC[C@](CC(O)CO)(c2ccc(F)cc2)NC1=O (single isomer, unassigned) [Example 8 Isomer 1]	< 0.1	96.3	–
C[C@@H](c1ccc(-c2ccc(F)cc2F)cc1)N1CC[C@](CC(O)CO)(c2ccc(F)cc2)NC1=O (single isomer, unassigned) [Example 8 Isomer 2]	< 0.1	–	Average % inhibition at 100 nM (at 100 nM): 94.8%
C[C@@H](c1ccc(-c2ccc(F)cc2)cc1)N1CC[C@](CC(O)CO)(c2ccc(F)cc2)NC1=O (single isomer, unassigned) [Example 9 Isomer 1]	< 0.1	94.5	–
C[C@@H](c1ccc(-c2ccc(F)cc2)cc1)N1CC[C@](CC(O)CO)(c2ccc(F)cc2)NC1=O (single isomer, unassigned) [Example 9 Isomer 2]	< 0.1	–	Average % inhibition at 100 nM (at 100 nM): 93.5%
C[C@@H](c1ccc(-c2ccc(F)cc2)cc1)N1CC[C@@](CC(O)CO)(c2ccc(F)cc2)NC1=O (single isomer, unassigned) [Example 9 Isomer 3]	< 0.1	–	Average % inhibition at 100 nM (at 100 nM): 38.5%
C[C@@H](c1ccc(-c2ccc(F)cc2)cc1)N1CC[C@@](CC(O)CO)(c2ccc(F)cc2)NC1=O (single isomer, unassigned) [Example 9 Isomer 4]	> 0.1	–	Average % inhibition at 100 nM (at 100 nM): 16.5%
C[C@@H](c1ccc(-c2ccc(F)cc2)cc1)N1CC[C@](CCCO)(c2ccc(F)cc2)NC1=O (single isomer, unassigned) [Example 10 Isomer 1]	< 0.1	102	–
C[C@@H](c1ccc(-c2ccc(F)cc2)cc1)N1CC[C@@](CCCO)(c2ccc(F)cc2)NC1=O (single isomer, unassigned) [Example 10 Isomer 2]	< 0.1	54.2	–
C[C@@H](c1ccc(Br)cc1)N1CC[C@](CCCO)(c2ccc(F)cc2)N(C)C1=O (single isomer, unassigned) [Example 11 Isomer 1]	< 0.1	64.4	–

Compound	IC50 (read-out: IC50 Range) [µM]	inhibition at 0.1 µM (at 100 nM) [%]	also measured
C[C@@H](c1ccc(Br)cc1)N1CC[C@@](CCCO)(c2ccc(F)cc2)N(C)C1=O (single isomer, unassigned) [Example 11 Isomer 2]	> 0.1	26.1	–
C[C@@H](c1ccc(-c2ccc(F)cc2)cc1)N1CC[C@](CCCO)(c2ccccc2)NC1=O (single isomer, unassigned) [Example 14 Isomer 1]	< 0.1	95.5	–
C[C@@H](c1ccc(-c2ccc(F)cc2)cc1)N1CC[C@@](CCCO)(c2ccccc2)NC1=O (single isomer, unassigned) [Example 14 Isomer 2]	< 0.1	58	–
Cc1cccc(N2CC[C@](C)(c3ccccc3)NC2=O)c1 [Example 1, (R)-4-methyl-4-phenyl-1-m-tolyltetrahydropyrimidin-2(1H)-one]	–	–	IC50 (IC50 Range): 0.1 to 1 µM; inhibition at 0.1111 µM (read-out: Average % inhibition at 111.1 nM): 49.4%
C[C@@H](c1ccc(Cl)cc1)N1CC[C@](CCO)(c2ccc(F)cc2)NC1=O [Example 12, (S)-1-((S)-1-(4-chlorophenyl)ethyl)-4-(4-fluorophenyl)-4-(2-hydroxyethyl)tetrahydropyrimidin-2(1H)-one]	< 0.1	96.9	–
C[C@@H](c1ccc(Cl)cc1)N1CC[C@](CCCO)(c2ccc(F)cc2)NC1=O [Example 13, 1-((1S)-1-(4-chlorophenyl)ethyl)-4-(4-fluorophenyl)-4-(3-hydroxypropyl)tetrahydropyrimidin-2(1H)-one]	< 0.1	96.1	–
C[C@@H](C1CCCCC1)N1CC[C@](CCCO)(c2ccccc2)NC1=O [Example 15, (R)-1-((S)-1-cyclohexylethyl)-4-(3-hydroxypropyl)-4-phenyltetrahydropyrimidin-2(1H)-one]	< 0.1	96.1	–
COc1ccc([C@H](C)N2CC[C@](CCCO)(c3ccc(F)cc3)NC2=O)cc1 [Example 16, (R)-4-(4-fluorophenyl)-4-(3-hydroxypropyl)-1-((S)-1-(4-methoxyphenyl)ethyl)tetrahydropyrimidin-2(1H)-one]	< 0.1	96.1	–
COc1ccc([C@H](C)N2CC[C@](CCO)(c3ccc(F)cc3)NC2=O)cc1 [Example 17, (S)-4-(4-fluorophenyl)-4-(2-hydroxyethyl)-1-((S)-1-(4-methoxyphenyl)ethyl)tetrahydropyrimidin-2(1H)-one]	< 0.1	94.3	–
C[C@@H](c1ccc(Br)cc1)N1CC[C@](CCCO)(c2ccc(F)cc2)NC1=O [Example 18, (R)-1-((S)-1-(4-bromophenyl)ethyl)-4-(4-fluorophenyl)-4-(3-hydroxypropyl)tetrahydropyrimidin-2(1H)-one]	< 0.1	97.5	–
C[C@@H](c1ccc(Br)cc1)N1CC[C@](CCCNS(C)(=O)=O)(c2ccc(F)cc2)NC1=O [Example 19, N-(3-((R)-1-((S)-1-(4-bromophenyl)ethyl)-4-(4-fluorophenyl)-2-oxohexahydropyrimidin-4-yl)propyl)methanesulfonamide]	< 0.1	–	inhibition at 0.1 µM: 96%
C[C@@H](c1ccc(Br)cc1)N1CC[C@](CC(C)(C)O)(c2ccccc2)NC1=O [Example 20, (S)-1-((S)-1-(4-bromophenyl)ethyl)-4-(2-hydroxy-2-methylpropyl)-4-phenyltetrahydropyrimidin-2(1H)-one]	< 0.1	94.4	–
C[C@@H](c1ccc(-c2ccn(C)c(=O)c2)cc1)N1CC[C@](CC(C)(C)O)(c2ccccc2)NC1=O [Example 21, (S)-4-(2-hydroxy-2-methylpropyl)-1-((S)-1-(4-(1-methyl-2-oxo-1,2-dihydropyridin-4-yl)phenyl)ethyl)-4-phenyltetrahydropyrimidin-2(1H)-one]	< 0.1	93.9	–
C[C@@H](C1CCCCC1)N1CC[C@](CCCO)(c2ccccc2)N(C)C1=O [Example 22, (R)-1-((S)-1-cyclohexylethyl)-4-(3-hydroxypropyl)-3-methyl-4-phenyltetrahydropyrimidin-2(1H)-one]	> 0.1	30	–
C[C@@H](c1ccc(Br)cc1)N1CC[C@](CC(C)(C)C#N)(c2ccccc2)NC1=O [Example 23, 3-((R)-1-((S)-1-(4-bromophenyl)ethyl)-2-oxo-4-phenylhexahydropyrimidin-4-yl)-2,2-dimethylpropanenitrile]	< 0.1	95.8	–
